The values that follow come from patent publication US7741479B2, “Urea inhibitors of MAP kinases” (Locus Pharmaceuticals, Inc., priority 2004, dated 2010).

The assay has as its target T1, p38 (Homo sapiens, UniProt Q16539).
T1 construct: made in house
As to the kind of experiment: Protein Kinase Assay (33P incorporation from γ-[33P]ATP into GST-ATF-2 substrate). In kind it is biochemical. The settings on record: same procedure at 0.5 μM. A digest of the protocol: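 Non-activated human p38 (10 nM) was preincubated with compounds for 20 min at 30° C, then GST-ATF-2 (aa 19-96) and γ-[33P]ATP were added for 70 min at 30° C. Reactions were stopped with phosphoric acid; phosphorylated substrate was captured on phosphocellulose and scintillation-counted.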

T1 sequence (Q16539 whole entry): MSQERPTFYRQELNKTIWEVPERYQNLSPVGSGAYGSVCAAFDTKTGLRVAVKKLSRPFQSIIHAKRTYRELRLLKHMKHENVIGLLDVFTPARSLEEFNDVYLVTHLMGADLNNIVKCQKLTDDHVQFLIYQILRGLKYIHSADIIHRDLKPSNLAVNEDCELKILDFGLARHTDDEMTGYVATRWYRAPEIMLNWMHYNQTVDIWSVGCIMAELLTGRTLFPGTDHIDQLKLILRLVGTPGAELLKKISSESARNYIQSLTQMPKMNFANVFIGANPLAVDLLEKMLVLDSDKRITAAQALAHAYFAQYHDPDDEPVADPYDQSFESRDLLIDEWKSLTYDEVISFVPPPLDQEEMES

By inhibition is commonly meant the drop in the measured response relative to a control, in per cent. The low end stands for a response near the control, the high end for a response far below the control. Consider `CC(C)(C)c1cc(C(=O)NCc2cccnc2)c(NC(=O)Nc2cccc3ccccc23)s1` [Example 131, 5-tert-Butyl-2-(3-naphthalen-1-yl-ureido)thiophene-3-carboxylic acid (pyridin-3-ylmethyl)amide], for which the inhibition at 0.5 µM was 76 to 100%.
Compound `CC(C)(C)c1cc(C(=O)NCc2cccnc2)c(NC(=O)Nc2ccc3ccccc3c2)s1` [Example 132, 5-tert-Butyl-2-(3-naphthalen-2-yl-ureido)thiophene-3-carboxylic acid (pyridin-3-ylmethyl)amide] returned an inhibition at 0.5 µM of 76 to 100%.
With `CC(C)(C)c1cc(C(=O)Nc2ccc3nn[nH]c3c2)c(NC(=O)Nc2cccc(Cl)c2Cl)s1` [Example 133, 5-tert-Butyl-2-[3-(2,3-dichlorophenyl)ureido]thiophene-3-carboxylic acid (3H-benzotriazol-5-yl)amide], the inhibition at 0.5 µM was 76 to 100%.
`CCC1C(=O)NCCN1C(=O)c1cc(C(C)(C)C)sc1NC(=O)Nc1cccc(Cl)c1Cl` (stereo not drawn) [Example 134, 1-[5-tert-Butyl-3-(2-ethyl-3-oxopiperazine-1-carbonyl)thiophen-2-yl]-3-(2,3-dichlorophenyl)urea] had an inhibition at 0.5 µM of 76 to 100%.
In turn, `C[C@H]1C(=O)NCCN1C(=O)c1cc(C(C)(C)C)sc1NC(=O)Nc1cccc(Cl)c1Cl` [Example 135, 1-[5-tert-Butyl-3-(2-methyl-3-oxopiperazine-1-carbonyl)thiophen-2-yl]-3-(2,3-dichlorophenyl)urea] gave an inhibition at 0.5 µM of 76 to 100%.
In turn, `CC(C)(C)c1cc(C(=O)N2CCNC(=O)C2(C)C)c(NC(=O)Nc2cccc(Cl)c2Cl)s1` [Example 136, 1-[5-tert-Butyl-3-(2,2-dimethyl-3-oxo-piperazine-1-carbonyl)thiophen-2-yl]-3-(2,3-dichlorophenyl)urea] came in with an inhibition at 0.5 µM of 76 to 100%.
